Laboratory results taken from ChEMBL document CHEMBL4118198, “Synthesis and antiviral evaluation of novel peptidomimetics as norovirus protease inhibitors” (Bioorg Med Chem Lett, 2018).

Columns and labels:
[1] = molecular target: T1, Protease (Norovirus Hu/GII.4-2002/WeertE022/2002/NL, UniProt G1FEK8); test: (§1) Inhibition of Norovirus prototypic GII.4 3CL protease using HiLyte Fluor 488-labelled DFELQGPK as substrate incubated for 90 mins measured every mins for 20 mins by FRET assay; set-up: species or system Norovirus GII.4
T1 sequence (G1FEK8 whole entry): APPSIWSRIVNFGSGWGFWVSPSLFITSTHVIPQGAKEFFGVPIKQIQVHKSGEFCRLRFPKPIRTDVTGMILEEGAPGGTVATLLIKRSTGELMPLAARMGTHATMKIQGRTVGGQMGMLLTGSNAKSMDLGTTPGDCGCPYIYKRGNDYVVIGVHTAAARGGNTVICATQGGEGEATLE

[2] = molecular target: Nonstructural polyprotein (Norovirus Hu/GI/10360/2010/VNM, UniProt I1U3K2); test: (§2) Inhibition of Norovirus prototypic GI.1 3CL protease using HiLyte Fluor 488-labelled DFELQGPK as substrate incubated for 90 mins measured every mins for 20 mins by FRET assay; set-up: species or system Norovirus GI.1
Sequence of Nonstructural polyprotein (I1U3K2 whole entry): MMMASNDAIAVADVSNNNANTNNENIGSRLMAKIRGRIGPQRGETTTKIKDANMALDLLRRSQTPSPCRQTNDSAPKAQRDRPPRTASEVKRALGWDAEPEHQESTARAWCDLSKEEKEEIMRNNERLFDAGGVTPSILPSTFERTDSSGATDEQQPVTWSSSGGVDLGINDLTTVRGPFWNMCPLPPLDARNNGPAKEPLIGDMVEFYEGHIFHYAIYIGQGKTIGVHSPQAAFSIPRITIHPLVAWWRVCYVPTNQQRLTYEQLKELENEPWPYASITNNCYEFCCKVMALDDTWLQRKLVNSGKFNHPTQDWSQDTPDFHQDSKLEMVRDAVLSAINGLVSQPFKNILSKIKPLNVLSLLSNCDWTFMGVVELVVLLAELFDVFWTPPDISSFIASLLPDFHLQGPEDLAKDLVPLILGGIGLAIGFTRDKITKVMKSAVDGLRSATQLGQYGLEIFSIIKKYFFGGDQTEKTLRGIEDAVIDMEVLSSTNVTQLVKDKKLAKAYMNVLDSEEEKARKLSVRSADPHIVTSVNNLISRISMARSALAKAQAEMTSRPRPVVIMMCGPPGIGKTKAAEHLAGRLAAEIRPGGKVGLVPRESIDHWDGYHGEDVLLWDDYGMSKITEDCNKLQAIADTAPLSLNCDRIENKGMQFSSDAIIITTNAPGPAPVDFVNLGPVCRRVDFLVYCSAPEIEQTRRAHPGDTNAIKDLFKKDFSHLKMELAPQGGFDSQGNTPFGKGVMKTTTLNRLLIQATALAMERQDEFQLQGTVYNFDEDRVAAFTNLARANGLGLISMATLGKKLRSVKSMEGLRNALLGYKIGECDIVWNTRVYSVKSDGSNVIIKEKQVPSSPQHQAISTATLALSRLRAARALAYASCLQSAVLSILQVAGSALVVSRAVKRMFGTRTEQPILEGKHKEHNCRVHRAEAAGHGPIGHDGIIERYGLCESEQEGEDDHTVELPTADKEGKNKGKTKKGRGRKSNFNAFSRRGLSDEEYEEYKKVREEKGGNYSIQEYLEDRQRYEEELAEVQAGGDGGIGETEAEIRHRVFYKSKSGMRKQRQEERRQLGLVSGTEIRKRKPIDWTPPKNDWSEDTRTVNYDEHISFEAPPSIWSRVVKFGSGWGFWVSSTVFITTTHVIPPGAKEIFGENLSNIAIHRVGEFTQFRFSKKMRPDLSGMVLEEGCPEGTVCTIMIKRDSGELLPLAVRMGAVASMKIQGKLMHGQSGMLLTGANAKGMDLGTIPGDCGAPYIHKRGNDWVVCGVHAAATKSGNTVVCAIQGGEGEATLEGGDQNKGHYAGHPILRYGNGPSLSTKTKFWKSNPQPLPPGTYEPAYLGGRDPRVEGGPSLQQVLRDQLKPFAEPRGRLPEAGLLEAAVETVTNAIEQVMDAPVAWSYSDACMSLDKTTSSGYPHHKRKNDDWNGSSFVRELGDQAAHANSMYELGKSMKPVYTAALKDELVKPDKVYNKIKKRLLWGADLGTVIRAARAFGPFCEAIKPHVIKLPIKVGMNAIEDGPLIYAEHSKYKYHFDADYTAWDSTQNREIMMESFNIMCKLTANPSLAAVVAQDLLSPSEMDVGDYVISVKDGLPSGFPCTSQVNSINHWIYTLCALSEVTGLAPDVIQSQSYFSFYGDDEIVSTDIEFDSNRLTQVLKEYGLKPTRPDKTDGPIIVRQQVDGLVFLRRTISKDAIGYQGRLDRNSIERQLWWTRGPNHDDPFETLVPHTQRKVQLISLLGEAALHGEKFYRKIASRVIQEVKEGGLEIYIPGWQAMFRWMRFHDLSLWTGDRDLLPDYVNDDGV

[3] = tested on: PBMC; test: Cytotoxicity against human PBMC assessed as reduction in cell viability after 6 days by trypan blue exclusion assay; type: cell-based; conditions: 144 h
[4] = tested on: Norovirus; test: Antiviral activity against Norovirus prototypic GI.1 infected in human HG23 cells assessed as inhibition of viral RNA replication after 4 days by RT-qPCR method; type: functional, organism-based, Norovirus GI.1
[5] = tested on: CCRF-CEM; test: Cytotoxicity against human CEM cells assessed as reduction in cell viability after 6 days by trypan blue exclusion assay; type: cell-based; conditions: 144 h
[6] = tested on: Vero; test: Cytotoxicity against African green monkey Vero cells assessed as reduction in cell viability after 3 days by hemocytometer; type: cell-based; conditions: chlorocebus sabaeus, 72 h
[7] = molecular target: T2, Protease (Norovirus Hu/GII.4-2002/WeertE022/2002/NL) (UniProt G1FEK8); test: as §1; conditions: Norovirus GII.4
T2 sequence (whole entry): T1 sequence (G1FEK8 whole entry)

[8] = molecular target: Nonstructural polyprotein (Norovirus Hu/GI/10360/2010/VNM) (UniProt I1U3K2); test: as §2; conditions: Norovirus GI.1
Sequence of Nonstructural polyprotein (Norovirus Hu/GI/10360/2010/VNM) (I1U3K2 as listed by the source): as the sequence (I1U3K2 whole entry) above

[9] = tested on: Huh-7; test: Cytotoxicity against human HuH7 cells assessed as reduction in cell viability; type: cell-based
[10] = molecular target: T2, Protease (Norovirus Hu/GII.4-2002/WeertE022/2002/NL); test: Inhibition of Norovirus prototypic GII.4 3CL protease using HiLyte Fluor 488-labelled DFELQGPK as substrate incubated for 90 mins measured every mins for 20 mins by FRET assay relative to control; conditions: Norovirus GII.4
[11] = tested on: Norovirus; test: Antiviral activity against Norovirus prototypic GI.1 infected in human HG23 cells assessed as inhibition of viral RNA replication at 10 uM after 4 days by RT-qPCR method relative to control; type: functional, Norovirus GI.1; conditions: HG23, 96 h
[12] = Norovirus, HG23, 96 h, read-out: EC50

Compound	IC50 [1]	IC50 [2]	CC50 [3]	EC90 ([4]; Norovirus, HG23, 96 h)	EC50 [4, 12]	CC50 [5]	CC50 [6]	IC90 [7]	IC90 [8]	CC50 [9]	inhibition [10]	inhibition at 10 µM [11]	EC50 [4]
CC(C)C[C@H](NC(=O)[C@H](Cc1cccc2ccccc12)NC(=O)OCc1ccccc1)C(=O)NC(/C=C/C=O)C[C@@H]1CCNC1=O (some centres not stated)	> 100000 nM	> 10000 nM	3.9 µM	> 10 µM	4700 nM	1.9 µM	77.7 µM						
CC(C)C[C@H](NC(=O)[C@H](Cc1cccc2ccccc12)NC(=O)OCc1ccccc1)C(=O)N[C@@H](C[C@@H]1CCCNC1=O)C(O)S(=O)(=O)O (some centres not stated)	2630 nM	654 nM	43.8 µM	2.45 µM	390 nM	18.3 µM	> 100 µM	14 µM	2240 nM	11.2 µM			
CC(C)C[C@H](NC(=O)[C@H](Cc1cccc2ccccc12)NC(=O)OCc1ccccc1)C(=O)N[C@H](CO)CCC(=O)N1CCC1	502 nM	> 1000 nM	18.4 µM	17.3 µM	6190 nM	2.2 µM	8.6 µM	5.54 µM					
CC(C)C[C@H](NC(=O)[C@H](Cc1cccc2ccccc12)NC(=O)OCc1ccccc1)C(=O)N[C@H](CO)CNC(=O)N1CCC1	> 100000 nM	> 100000 nM	21.2 µM		> 10000 nM	2.2 µM	> 100 µM			33 µM	4%		
CC(C)C[C@H](NC(=O)[C@H](Cc1cccc2ccccc12)NC(=O)OCc1ccccc1)C(=O)N[C@@H](C[C@@H]1CCCNC1=O)C(=O)C(F)(F)F	2630 nM	654 nM	43.8 µM	2.45 µM	390 nM	18.3 µM	> 100 µM	14 µM	2240 nM	11.2 µM			
CC(C)C[C@H](NC(=O)[C@H](Cc1cccc2ccccc12)NC(=O)OCc1ccccc1)C(=O)NC(C[C@@H]1CCNC1=O)C1CO1 (some centres not stated)	> 100000 nM	> 100000 nM	15.7 µM		> 10000 nM	14 µM	30.4 µM						
CC(C)C[C@H](NC(=O)[C@H](Cc1cccc2ccccc12)NC(=O)OCc1ccccc1)C(=O)N[C@H](CS)C[C@@H]1CCNC1=O	> 10000 nM	> 10000 nM	> 100 µM		> 10000 nM	> 100 µM	> 100 µM			93.5 µM			
CC(C)C[C@H](NC(=O)[C@H](Cc1cccc2ccccc12)NC(=O)OCc1ccccc1)C(=O)N[C@H](C=O)C[C@@H]1CCNC1=O	60 nM	32 nM	28.4 µM	8.36 µM	1130 nM	39.5 µM	> 100 µM	0.205 µM	248 nM	> 10 µM			
CC(C)C[C@H](NC(=O)[C@H](Cc1cccc2ccccc12)NC(=O)OCc1ccccc1)C(=O)N[C@H](C=O)C[C@@H]1CCCNC1=O	150 nM	80 nM	23.6 µM	0.92 µM	420 nM	31.6 µM	19.8 µM	1.19 µM	155 nM	25.7 µM			
CC(C)C[C@H](NC(=O)[C@H](Cc1cccc2ccccc12)NC(=O)OCc1ccccc1)C(=O)N[C@H](/C=C(\C#N)C(N)=O)C[C@@H]1CCCNC1=O	1170 nM	593 nM	45.4 µM	7.82 µM	750 nM	9.1 µM	> 100 µM	3.6 µM	1700 nM	8.4 µM			
CC(C)C[C@H](NC(=O)[C@H](Cc1cccc2ccccc12)NC(=O)OCc1ccccc1)C(=O)N[C@H](CO)Cn1ccnn1	> 10000 nM	> 1000 nM	1.9 µM			0.3 µM	3.2 µM			2.7 µM		99%	Nd(Toxic)
CC(C)C[C@H](NC(=O)[C@H](Cc1cccc2ccccc12)NC(=O)OCc1ccccc1)C(=O)NC(C[C@@H]1CCNC1=O)C1OC1S(C)(=O)=O (some centres not stated)	30000 nM	> 10000 nM	> 100 µM	> 20 µM	4330 nM	63.9 µM	> 100 µM	> 100 µM					
CC(C)C[C@H](NC(=O)[C@H](Cc1cccc2ccccc12)NC(=O)OCc1ccccc1)C(=O)N[C@H](CCl)C[C@@H]1CCCNC1=O	> 100000 nM		75 µM		> 10000 nM	26.6 µM	51.7 µM						
